Reference: ChEMBL document CHEMBL5052852, “Substituted hydantoinamides as adamts7 antagonists” (2021)

What was measured:
[1] = Inhibition of recombinant rat/human ADAMTS7 hybrid using HiLyteFluor-488 DELSSMVLELRGLRT-K(QXL520)-E-NH2 as substrate incubated for 120 mins and measured by FRET assay
[2] = Inhibition of recombinant rat/human ADAMTS12 hybrid using HiLyteFluor-488 DELSSMVLELRGLRT-K(QXL520)-E-NH2 as substrate incubated for 120 mins and measured by FRET assay

| Compound | IC50 [1] [nM] | IC50 [2] [nM] |
| --- | --- | --- |
| N#Cc1ccc(-n2ncc(C(=O)NC[C@@]3(C4CC4)NC(=O)NC3=O)n2)cc1 | 40 | 17000 |
| O=C1NC(=O)[C@](CNC(=O)c2cnn(-c3ccc(C(F)(F)F)c(F)c3)n2)(C2CC2)N1 | 120 | 4600 |
| O=C1NC(=O)[C@](CNC(=O)c2coc(-c3ccc(F)cc3)n2)(C2CC2)N1 | 55 | 1700 |
| O=C1NC(=O)[C@](CNC(=O)c2cnn(-c3ccccc3F)n2)(C2CC2)N1 | 180 | 7600 |
| O=C1NC(=O)[C@](CNC(=O)c2cnn(-c3cc(F)ccc3F)n2)(C2CC2)N1 | 110 | 5500 |
| O=C1NC(=O)[C@](CNC(=O)c2cnn(-c3ccccn3)n2)(C2CC2)N1 | 98 | 7650 |
| O=C1NC(=O)C(CNC(=O)c2cnn(-c3ccc(F)c(F)c3)n2)(C2CCC2)N1 (stereo unspecified) | 6 | 890 |
| COc1ccc(-n2ncc(C(=O)NC[C@@]3(C4CC4)NC(=O)NC3=O)n2)cc1 | 100 | 6000 |
| O=C1NC(=O)[C@](CNC(=O)c2cnn(-c3nc4ccccc4s3)n2)(C2CC2)N1 | 190 | 11000 |
| Cc1cccc(-n2ncc(C(=O)NC[C@@]3(C4CC4)NC(=O)NC3=O)n2)c1 | 170 | 2200 |
| O=C1NC(=O)[C@](CNC(=O)c2cnn(-c3ccccc3)c2)(C2CC2)N1 | 129 | 1800 |
| O=C1NC(=O)[C@](CNC(=O)c2nnc(-c3ccc(F)cc3)o2)(C2CC2)N1 | 350 | 12000 |
| O=C1NC(=O)C(CNC(=O)c2cnn(-c3ccc(F)cc3)n2)(C2CCCCC2)N1 (stereo unspecified) | 14 | 4100 |
| Cn1cc(-c2cc(C(=O)NC[C@@]3(C4CC4)NC(=O)NC3=O)on2)cn1 | 52 | 4690 |
| O=C1NC(=O)[C@](CNC(=O)c2cnn(-c3ccc(F)cc3)n2)(C2CC2)N1 | 26 | 1420 |
| CC(CO)C1(CNC(=O)c2cnn(-c3ccccc3)n2)NC(=O)NC1=O (stereo unspecified) | 190 | 17000 |
| O=C1NC(=O)[C@](CNC(=O)c2cc(-c3cnn(CC4CC4)c3)no2)(C2CC2)N1 | 550 | 50000 |
| O=C1NC(=O)[C@](CNC(=O)c2cnn(-c3ccc(Cl)c(Cl)c3)n2)(C2CC2)N1 | 35 | 910 |
| CS(=O)(=O)c1ccc(-n2ncc(C(=O)NC[C@@]3(C4CC4)NC(=O)NC3=O)n2)cc1 | 870 | 67000 |

| Compound | IC50 [1] [nM] | IC50 [2] [nM] |
| --- | --- | --- |
| O=C1NC(=O)C(CNC(=O)c2nc(-c3ccccc3)no2)(CC2CC2)N1 (stereo unspecified) | 250 | 2900 |
| C[C@@H](NC(=O)c1cnn(-c2ccccc2)n1)C1(C2CC2)NC(=O)NC1=O (stereo partly specified) | 710 | 50000 |
| O=C1NC(=O)C(CNC(=O)c2cnn(-c3ccc(Cl)cc3)n2)(C2CCC2)N1 (stereo unspecified) | 10 | 980 |
| O=C1NC(=O)[C@](CNC(=O)c2cnn(-c3cnsc3)n2)(C2CC2)N1 | 230 | 7400 |
| O=C1NC(=O)C(CNC(=O)c2cnn(-c3cccc(Cl)c3)n2)(C2CCC2)N1 (stereo unspecified) | 48 | 2200 |
| O=C1NC(=O)[C@](CNC(=O)c2cnn(-c3cccc(F)c3)n2)(C2CC2)N1 | 13 | 580 |
| Cc1ccccc1-n1ncc(C(=O)NC[C@@]2(C3CC3)NC(=O)NC2=O)n1 | 980 | 12000 |
| O=C1NC(=O)[C@](CNC(=O)c2cnn(-c3ccc(F)c(Cl)c3)n2)(C2CC2)N1 | 5 | 250 |
| O=C1NC(=O)[C@](CNC(=O)c2cnn(-c3ccccc3Cl)n2)(C2CC2)N1 | 470 | 10000 |
| CC(C)(C)CC1(CNC(=O)c2cnn(-c3ccccc3)n2)NC(=O)NC1=O (stereo unspecified) | 250 | 5000 |
| O=C1NC(=O)[C@](CNC(=O)c2cnn(-c3cc(F)c(F)c(F)c3)n2)(C2CC2)N1 | 25 | 1100 |
| O=C1NC(=O)C(CNC(=O)c2cnn(-c3ccc(Cl)c(F)c3)n2)(C2CCC2)N1 (stereo unspecified) | 6 | 975 |
| O=C1NC(=O)C(CNC(=O)c2cnn(-c3cccc(F)c3)n2)(C2CCC2)N1 (stereo unspecified) | 8 | 2200 |
| O=C1NC(=O)[C@](CNC(=O)c2cnn(-c3ccccc3)n2)(C2CC2)N1 | 69 | 1450 |
| Cc1ccc(-n2ncc(C(=O)NC[C@@]3(C4CC4)NC(=O)NC3=O)n2)cc1 | 47 | 950 |
| O=C1NC(=O)[C@](CNC(=O)c2cnn(-c3ccc(Br)cc3)n2)(C2CC2)N1 | 58 | 1400 |
| O=C1NC(=O)[C@](CNC(=O)c2cnn(-c3ccc(F)cn3)n2)(C2CC2)N1 | 140 | 4750 |
| O=C1NC(=O)C(CNC(=O)c2cnn(-c3cc(F)c(F)c(F)c3)n2)(C2CCC2)N1 (stereo unspecified) | 16 | 3100 |
| O=C1NC(=O)[C@](CNC(=O)c2cnn(-c3ncccc3F)n2)(C2CC2)N1 | 7 | 14000 |

| Compound | IC50 [1] [nM] | IC50 [2] [nM] |
| --- | --- | --- |
| O=C1NC(=O)[C@](CNC(=O)c2cnn(-c3cccc(Cl)c3)n2)(C2CC2)N1 | 21 | 450 |
| O=C1NC(=O)[C@](CNC(=O)c2cnn(-c3ccc(F)cc3F)n2)(C2CC2)N1 | 41 | 4250 |
| O=C1NC(=O)[C@](CNC(=O)c2cnn(-c3ccc(Cl)c(F)c3)n2)(C2CC2)N1 | 12 | 500 |
| O=C1NC(=O)C(CNC(=O)c2cnn(-c3ccc(F)cc3F)n2)(C2CCC2)N1 (stereo unspecified) | 63 | 8500 |
| N#Cc1cccc(-n2ncc(C(=O)NC[C@@]3(C4CC4)NC(=O)NC3=O)n2)c1 | 32 | 600 |
| O=C1NC(=O)C(CNC(=O)c2cnn(-c3ccc(F)c(F)c3)n2)(c2nccs2)N1 (stereo unspecified) | 7 | 310 |
| O=C1NC(=O)[C@](CNC(=O)c2cnn(-c3ccc(Cl)cc3)n2)(C2CC2)N1 | 26 | 480 |
| O=C1NC(=O)[C@](CNC(=O)c2cnn(-c3ccc(OC(F)(F)F)cc3)n2)(C2CC2)N1 | 190 | > 50000 |
| C[C@H](NC(=O)c1cnn(-c2ccccc2)n1)C1(C2CC2)NC(=O)NC1=O (stereo partly specified) | 980 | 25000 |
| O=C1NC(=O)[C@](CNC(=O)c2cnn(-c3cnccn3)n2)(C2CC2)N1 | 355 | 24000 |
| O=C1NC(=O)[C@](CNC(=O)c2cnn(-c3cccc(F)c3F)n2)(C2CC2)N1 | 74 | 3100 |
| N#Cc1cccc(-n2ncc(C(=O)NCC3(C4CCC4)NC(=O)NC3=O)n2)c1 (stereo unspecified) | 78 | 4000 |
| O=C1NC(=O)C(CNC(=O)c2cnn(-c3ccc(F)c(Cl)c3)n2)(C2CCC2)N1 (stereo unspecified) | 18 | 1800 |
| O=C1NC(=O)[C@](CNC(=O)c2cnc(-c3ccccc3)o2)(C2CC2)N1 | 550 | 11300 |
| CC(C)C1(CNC(=O)c2cnn(-c3ccc(F)c(Cl)c3)n2)NC(=O)NC1=O (stereo unspecified) | 190 | 12000 |
| O=C1NC(=O)[C@](CNC(=O)c2cnn(-c3ccc(F)c(F)c3)n2)(C2CC2)N1 | 7 | 175 |
| Cn1ccnc1C1(CNC(=O)c2cnn(-c3ccccc3)n2)NC(=O)NC1=O (stereo in doubt) | – | 320 |
| CC(C)C1(CNC(=O)c2cnn(-c3ccc(F)cc3F)n2)NC(=O)NC1=O (stereo in doubt) | – | 13000 |
| O=C1NC(=O)C(CNC(=O)c2cnn(-c3ccc(F)cc3)n2)(c2ccccn2)N1 (stereo in doubt; form 1) | – | 1900 |
